Reference: paper PMC8123576 (International Journal of Molecular Sciences, 2021)
Like-named read-outs stand apart in the source and are kept apart here.

What was measured:
U937 cells [1] = assay: Alkaline Comet Assay; assay type: cell-based, human; conditions: 24 h treatment, 25-100 µM
Procedure: Our standard protocol for the Alkaline Comet Assay (pH > 13) was previously described in great detail. The DNA-damaging effects of non-cytotoxic molecules were evaluated on U937 cells using 25 μM as the lowest concentration and 100 µM as the highest for 24 h treatment. After exposure, cell viability was checked using the trypan blue exclusion method: a viability of at least 70% compared to the negative control (DMSO) was used as a cut-off for further evaluating the level of DNA damage. After electrophoresis (DNA unwinding: 20 min; electrophoresis: 20 min, 0.78 V cm^−1, 300 mA), nucleoids stained with ethidium bromide (75 µL, 10 µg/mL) were examined with a Leica DMLS fluorescence microscope (excitation filter BP 515–560 nm, barrier filter LP 580 nm), using the software Comet Assay IV (Perceptive Instruments Ltd., Suffolk, UK). Alkaline Comet assay results are expressed as tail intensity percentage that measures the percentage of total cellular DNA found in the tail of each comet.

[2] = test system: S. typhimurium TA98 and TA100 strains; assay: Ames test, overall mutagenicity verdict in bacteria; conditions: TA98 and TA100, -S9 and +S9
U937 cells [3] = assay: Cytotoxicity assay (CellTiter 96 AQueous One) on U937; assay type: cell-based, human; conditions: U937 cells, 24 h treatment
Procedure: (§1) The best antifungal and/or antiaflatoxigenic compounds were tested to determine their cytotoxic activity against human normal cell lines deriving from lung (HFL1, ATCC and CCL-153), skin (Hs27, ATCC, CRL1634) and colon (Crl1790, ATCC, CCD 841 CoN) and a cell line deriving from a hematological tumor (U937, ATCC and CRL-3253). These different cell lines have been chosen to simulate the different human exposition routes to pesticide. Cell culture conditions have been previously reported. Compound cytotoxicity was determined using CellTiter 96® AQueous One Solution Cell Proliferation Assay (Promega Corporation, Madison, WI, USA). The very detailed protocol was described by Bartoli et al.. In brief, cells were seeded in a 96-well plate at a density of 5000 cells/well and after 24 h cells were treated with different concentrations of the compounds (0.5–1–5–10–50–100 µM). After the treatment period (24 h), the CellTiter Reagent was added to each well (20 µL/well) and the plate incubated for 4 h at 37 °C. The plate was then read at 485 nm in a multiwell plate reader (TECAN SpectraFluor Plus, Männedorf, Switzerland).

[4] = as above; assay type: cell-based, human; conditions: human, U937 cells (hematological tumor line), U937, 24 h, dose 0 = 100.00, read-out: Growth inhibition data
Procedure: as §1

[5] = Cytotoxicity assay (CellTiter 96 AQueous One) on Crl1790; assay type: cell-based, human; conditions: human, Crl1790 (CCD 841 CoN) normal colon cells, Crl1790, 24 h, dose 0 = 100.00, read-out: Growth inhibition data
Procedure: as §1

HFL1 cells = assay: Cytotoxicity assay (CellTiter 96 AQueous One) on HFL1; assay type: cell-based, human; conditions: HFL1 cells, 24 h treatment
Procedure: as §1

[6] = as above; assay type: cell-based, human; conditions: human, HFL1 normal lung cells, HFL1, 24 h, dose 0 = 100.00, read-out: Growth inhibition data
Procedure: as §1

S. typhimurium TA100 = conditions: for TA100 + S9 revertants/plate: NC 106.5 ± 11.9; for TA100 revertants/plate: NC 95.8 ± 5.5
S. typhimurium TA98 = conditions: for TA98 + S9 revertants/plate: NC 26.5 ± 5.4; for TA98 revertants/plate: NC 15.7 ± 4.9
A. flavus = assay: microbe, parasite or virus in culture; assay type: cell-based, Aspergillus flavus; conditions: 10 to 100 µM; complexes compared with their ligand
[7] = test system: aflatoxin accumulation by A. flavus; assay: microbe, parasite or virus in culture; assay type: cell-based, Aspergillus flavus; conditions: Aspergillus flavus
A. cepa root cells = conditions: for MN (micronuclei frequency): NC 1.10 ± 1.28; for CA (aberrated cells / total cells in mitosis): NC 1.2
Procedure: To detect micronuclei and chromosomal aberrations six equal-sized pre-germinated young bulbs per sample were exposed for 24 h to sample dilutions. The bulbs dedicated to the micronuclei test underwent an additional treatment in the saline solution for 44 h of recovery time to cover two rounds of mitosis so that damage induced in chromosomes during mitosis to be visible as micronuclei in interphase cells. Then all the roots were fixed in acetic acid and ethanol (1:3) for 24 h and lastly stored in 70% ethanol. The negative control was DMSO in Rank’s solution (the dose of DMSO corresponding to volume of samples) and positive control was maleic hydrazide (10^−2 M, 6 h exposure). […] All experiments were performed in duplicate.

[8] = read-out: A.I. (%) (aflatoxin accumulation inhibition)

Q: With `CC(=NNC(N)=S)c1cccs1` [2-actpTS, 2-acetylthiophenethiosemicarbazone] as the compound, how does the “DNA damage in Alkaline Comet Assay” value (U937 cells [1]) read?
A: did not induce significant DNA damage

Q: What about the “mutagenicity in bacteria” value [2] of the same compound?
A: no mutagenicity at any of the concentrations tested

Q: What about the “50% inhibition of cell proliferation” value (U937 cells [3]) of the same compound?
A: did not induce 50% inhibition of cell proliferation

Q: What about the viability at 24 h, 0.5 µM ([4]; 0.5 µM) of the same compound?
A: 100 ± 9.43%

Q: What about the viability at 24 h, 1 µM ([4]; 1 µM) of the same compound?
A: 100 ± 4.23%

Q: And the viability at 24 h, 5 µM ([4]; 5 µM)?
A: 100 ± 6.71%

Q: What about the viability at 24 h, 10 µM ([4]; 10 µM) of the same compound?
A: 100 ± 7.06%

Q: What about the viability at 24 h, 50 µM ([4]; 50 µM) of the same compound?
A: 100 ± 3.6%

Q: What about the viability at 24 h, 100 µM ([4]; 100 µM) of the same compound?
A: 94.7 ± 8.15%

Q: What about the viability at 24 h, 0.5 µM ([5]; 0.5 µM) of the same compound?
A: 100 ± 3.63%

Q: What about the viability at 24 h, 1 µM ([5]; 1 µM) of the same compound?
A: 95.1 ± 7.76%

Q: And the viability at 24 h, 5 µM ([5]; 5 µM)?
A: 88.4 ± 2.25%

Q: And the viability at 24 h, 10 µM ([5]; 10 µM)?
A: 89.1 ± 5.24%

Q: What about the viability at 24 h, 50 µM ([5]; 50 µM) of the same compound?
A: 81.8 ± 3.48%

Q: And the viability at 24 h, 100 µM ([5]; 100 µM)?
A: 62 ± 4.6%

Q: What about the “50% inhibition of cell proliferation” value (HFL1 cells) of the same compound?
A: did not induce 50% inhibition of cell proliferation

Q: What about the viability at 24 h, 0.5 µM ([6]; 0.5 µM) of the same compound?
A: 100 ± 11.1%

Q: And the viability at 24 h, 1 µM ([6]; 1 µM)?
A: 100 ± 6.11%

Q: What about the viability at 24 h, 5 µM ([6]; 5 µM) of the same compound?
A: 100 ± 5.74%

Q: What about the viability at 24 h, 10 µM ([6]; 10 µM) of the same compound?
A: 100 ± 6.76%

Q: What about the viability at 24 h, 50 µM ([6]; 50 µM) of the same compound?
A: 100 ± 4.53%

Q: What about the viability at 24 h, 100 µM ([6]; 100 µM) of the same compound?
A: 92.5 ± 3.49%

Q: And the “TA100 + S9 MR (mutagenicity ratio)” value (S. typhimurium TA100; +S9, 0.1 µM/plate)?
A: 0.9

Q: What about the “TA100 + S9 revertants/plate” value (S. typhimurium TA100; +S9, 0.1 µM/plate) of the same compound?
A: 98.0 ± 24.0 revertants/plate

Q: And the “TA100 + S9 MR (mutagenicity ratio)” value (S. typhimurium TA100; +S9, 1.0 µM/plate)?
A: 1.0

Q: What about the “TA100 + S9 revertants/plate” value (S. typhimurium TA100; +S9, 1.0 µM/plate) of the same compound?
A: 104.0 ± 15.6 revertants/plate

Q: And the “TA100 + S9 MR (mutagenicity ratio)” value (S. typhimurium TA100; +S9, 10.0 µM/plate)?
A: 1.0

Q: And the “TA100 + S9 revertants/plate” value (S. typhimurium TA100; +S9, 10.0 µM/plate)?
A: 107.5 ± 0.7 revertants/plate

Q: What about the “TA100 + S9 MR (mutagenicity ratio)” value (S. typhimurium TA100; +S9, 50.0 µM/plate) of the same compound?
A: 0.9

Q: What about the “TA100 + S9 revertants/plate” value (S. typhimurium TA100; +S9, 50.0 µM/plate) of the same compound?
A: 90.5 ± 13.4 revertants/plate

Q: And the “TA100 + S9 MR (mutagenicity ratio)” value (S. typhimurium TA100; +S9, 100.0 µM/plate)?
A: 0.8

Q: What about the “TA100 + S9 revertants/plate” value (S. typhimurium TA100; +S9, 100.0 µM/plate) of the same compound?
A: 88.0 ± 8.5 revertants/plate

Q: And the “TA100 MR (mutagenicity ratio)” value (S. typhimurium TA100; -S9, 0.1 µM/plate)?
A: 1.0

Q: What about the TA100 revertants/plate (S. typhimurium TA100; -S9, 0.1 µM/plate) of the same compound?
A: 92.0 ± 14.1 revertants/plate

Q: And the “TA100 MR (mutagenicity ratio)” value (S. typhimurium TA100; -S9, 1.0 µM/plate)?
A: 1.1

Q: And the TA100 revertants/plate (S. typhimurium TA100; -S9, 1.0 µM/plate)?
A: 101.5 ± 4.9 revertants/plate

Q: And the “TA100 MR (mutagenicity ratio)” value (S. typhimurium TA100; -S9, 10.0 µM/plate)?
A: 1.1

Q: And the TA100 revertants/plate (S. typhimurium TA100; -S9, 10.0 µM/plate)?
A: 104.5 ± 9.2 revertants/plate

Q: And the “TA100 MR (mutagenicity ratio)” value (S. typhimurium TA100; -S9, 50.0 µM/plate)?
A: 0.9

Q: What about the TA100 revertants/plate (S. typhimurium TA100; -S9, 50.0 µM/plate) of the same compound?
A: 87.5 ± 7.8 revertants/plate

Q: And the “TA100 MR (mutagenicity ratio)” value (S. typhimurium TA100; -S9, 100.0 µM/plate)?
A: 1.0

Q: And the TA100 revertants/plate (S. typhimurium TA100; -S9, 100.0 µM/plate)?
A: 99.5 ± 0.7 revertants/plate

Q: And the “TA98 + S9 MR (mutagenicity ratio)” value (S. typhimurium TA98; +S9, 0.1 µM/plate)?
A: 0.9

Q: What about the “TA98 + S9 revertants/plate” value (S. typhimurium TA98; +S9, 0.1 µM/plate) of the same compound?
A: 25.0 ± 0.0 revertants/plate

Q: What about the “TA98 + S9 MR (mutagenicity ratio)” value (S. typhimurium TA98; +S9, 1.0 µM/plate) of the same compound?
A: 1.4

Q: What about the “TA98 + S9 revertants/plate” value (S. typhimurium TA98; +S9, 1.0 µM/plate) of the same compound?
A: 37.0 ± 4.2 revertants/plate

Q: What about the “TA98 + S9 MR (mutagenicity ratio)” value (S. typhimurium TA98; +S9, 10.0 µM/plate) of the same compound?
A: 1.3

Q: And the “TA98 + S9 revertants/plate” value (S. typhimurium TA98; +S9, 10.0 µM/plate)?
A: 34.0 ± 2.8 revertants/plate

Q: What about the “TA98 + S9 MR (mutagenicity ratio)” value (S. typhimurium TA98; +S9, 50.0 µM/plate) of the same compound?
A: 1.2

Q: And the “TA98 + S9 revertants/plate” value (S. typhimurium TA98; +S9, 50.0 µM/plate)?
A: 31.5 ± 6.4 revertants/plate

Q: What about the “TA98 + S9 MR (mutagenicity ratio)” value (S. typhimurium TA98; +S9, 100.0 µM/plate) of the same compound?
A: 1.2

Q: And the “TA98 + S9 revertants/plate” value (S. typhimurium TA98; +S9, 100.0 µM/plate)?
A: 32.0 ± 2.8 revertants/plate

Q: What about the “TA98 MR (mutagenicity ratio)” value (S. typhimurium TA98; -S9, 0.1 µM/plate) of the same compound?
A: 1.9

Q: And the TA98 revertants/plate (S. typhimurium TA98; -S9, 0.1 µM/plate)?
A: 29.5 ± 3.5 revertants/plate

Q: And the “TA98 MR (mutagenicity ratio)” value (S. typhimurium TA98; -S9, 1.0 µM/plate)?
A: 1.5

Q: What about the TA98 revertants/plate (S. typhimurium TA98; -S9, 1.0 µM/plate) of the same compound?
A: 23.5 ± 6.4 revertants/plate

Q: What about the “TA98 MR (mutagenicity ratio)” value (S. typhimurium TA98; -S9, 10.0 µM/plate) of the same compound?
A: 1.0

Q: And the TA98 revertants/plate (S. typhimurium TA98; -S9, 10.0 µM/plate)?
A: 16.0 ± 1.4 revertants/plate

Q: What about the “TA98 MR (mutagenicity ratio)” value (S. typhimurium TA98; -S9, 50.0 µM/plate) of the same compound?
A: 1.4

Q: And the TA98 revertants/plate (S. typhimurium TA98; -S9, 50.0 µM/plate)?
A: 22.5 ± 3.5 revertants/plate

Q: What about the “TA98 MR (mutagenicity ratio)” value (S. typhimurium TA98; -S9, 100.0 µM/plate) of the same compound?
A: 1.3

Q: And the TA98 revertants/plate (S. typhimurium TA98; -S9, 100.0 µM/plate)?
A: 21.0 ± 0.0 revertants/plate

Q: What about the “impact on fungal growth” value (A. flavus) of the same compound?
A: modest inhibitory activity

Q: What about the inhibition at 50 µM [7, 8] of the same compound?
A: 58.3%

Q: And the inhibition at 100 µM [7, 8]?
A: 88.4%

Q: And the inhibition at 10 µM ([7]; read-out: percentage of aflatoxin accumulation inhibition)?
A: 23%

Q: And the “MN (micronuclei frequency)” value (A. cepa root cells; 10 µM)?
A: 1.20 ± 0.83%

Q: And the “CA (aberrated cells / total cells in mitosis)” value (A. cepa root cells; 10 µM)?
A: 2.7%

Q: And the “MN (micronuclei frequency)” value (A. cepa root cells; 25 µM)?
A: 1.40 ± 1.14%

Q: And the “CA (aberrated cells / total cells in mitosis)” value (A. cepa root cells; 25 µM)?
A: 4.7%

Q: What about the “MN (micronuclei frequency)” value (A. cepa root cells; 50 µM) of the same compound?
A: 2.00 ± 1.58%

Q: What about the “CA (aberrated cells / total cells in mitosis)” value (A. cepa root cells; 50 µM) of the same compound?
A: 6.3%

Q: And the “toxicity to roots in the micronuclei test” value (A. cepa root cells; 100 µM dose)?
A: highly toxic

Q: What about the “CA (aberrated cells / total cells in mitosis)” value (A. cepa root cells; 100 µM) of the same compound?
A: 6.0%
